The target in this experiment is T1, human M1 receptor (Homo sapiens, UniProt P11229).
T1 sequence (P11229 1-460): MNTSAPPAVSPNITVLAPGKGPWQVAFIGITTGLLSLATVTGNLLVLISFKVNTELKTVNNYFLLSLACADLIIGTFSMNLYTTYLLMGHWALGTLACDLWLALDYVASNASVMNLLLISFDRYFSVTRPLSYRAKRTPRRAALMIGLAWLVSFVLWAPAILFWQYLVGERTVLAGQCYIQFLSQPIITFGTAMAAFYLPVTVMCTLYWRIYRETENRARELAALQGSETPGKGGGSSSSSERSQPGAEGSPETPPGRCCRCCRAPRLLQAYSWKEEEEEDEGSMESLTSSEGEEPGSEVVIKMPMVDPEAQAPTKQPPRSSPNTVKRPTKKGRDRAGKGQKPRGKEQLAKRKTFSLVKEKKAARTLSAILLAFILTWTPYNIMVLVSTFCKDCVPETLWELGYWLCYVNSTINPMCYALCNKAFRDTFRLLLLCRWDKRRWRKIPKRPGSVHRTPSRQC
The experiment can be described thus: In vitro functional assay of muscarinic acetylcholine receptor activity (aequorin calcium flux, reversal of EC80 acetylcholine response). Type of experiment: cell-based. The note with it: CHO-K1 cells stably expressing human M1 receptor with aequorin; acetylcholine at EC80; calcium flux (luminescence); read-out: M1 IC50. In a few lines: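 Antagonist mode: compound (final 0.1% DMSO) and coelenterazine-loaded M1/aequorin CHO-K1 cells incubated 30 min in the dark before EC80 acetylcholine addition. Calcium flash integrated as 40 s luminescence AUC; IC50 derived from dose-response curves.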
(A change in cytosolic calcium serves as a functional read-out for many receptors and channels.)

The structures appear in SMILES notation.

What is called IC50 is the concentration at which inhibition is half-maximal.

`N#Cc1ccc(N2C3CCC2CN(C(=O)COC2(c4cncc(F)c4)CCC2)C3)nc1` [Example 251, 6-(3-(2-(1-(5-fluoropyridin-3-yl)cyclobutoxy)acetyl)-3,8-diazabicyclo[3.2.1]octan-8-yl)nicotinonitrile]: the IC50 is 0.1 to 1 µM.

Consider `COc1cc(C2(OCC(=O)N3CC4CCC(C3)N4c3ccc(C#N)cn3)CCC2)ccn1` [Example 252, 6-(3-(2-(1-(2-methoxypyridin-4-yl)cyclobutoxy)acetyl)-3,8-diazabicyclo[3.2.1]octan-8-yl)nicotinonitrile], for which the IC50 lay within 0.01 to 0.1 µM.

In the case of `COc1cccc(C2(OCC(=O)N3CC4CCC(C3)N4c3ccc(C#N)cn3)CCC2)n1` [Example 253, 6-(3-(2-(1-(6-methoxypyridin-2-yl)cyclobutoxy)acetyl)-3,8-diazabicyclo[3.2.1]octan-8-yl)nicotinonitrile], the IC50 is less than 0.01 µM.

On to `COc1ncccc1C1(OCC(=O)N2CC3CCC(C2)N3c2ccc(C#N)cn2)CCC1` [Example 254, 6-(3-(2-(1-(2-methoxypyridin-3-yl)cyclobutoxy)acetyl)-3,8-diazabicyclo[3.2.1]octan-8-yl)nicotinonitrile], for which the IC50 is less than 0.01 µM.

Regarding `COc1ccnc(C2(OCC(=O)N3CC4CCC(C3)N4c3ccc(C#N)cn3)CCC2)c1` [Example 255, 6-(3-(2-(1-(4-methoxypyridin-2-yl)cyclobutoxy)acetyl)-3,8-diazabicyclo[3.2.1]octan-8-yl)nicotinonitrile], the IC50 was less than 0.01 µM.

In the case of `COc1ccc(C2(OCC(=O)N3CC4CCC(C3)N4c3ccc(C#N)cn3)CCC2)nc1` [Example 256, 6-(3-(2-(1-(5-methoxypyridin-2-yl)cyclobutoxy)acetyl)-3,8-diazabicyclo[3.2.1]octan-8-yl)nicotinonitrile], the IC50 is 1 to 10 µM.

Turning to `COc1ccc(C2(OCC(=O)N3CC4CCC(C3)N4c3ccc(C#N)cn3)CCC2)cn1` [Example 257, 6-(3-(2-(1-(6-methoxypyridin-3-yl)cyclobutoxy)acetyl)-3,8-diazabicyclo[3.2.1]octan-8-yl)nicotinonitrile], the IC50 was 1 to 10 µM.

Take `COc1ccncc1C1(OCC(=O)N2CC3CCC(C2)N3c2ccc(C#N)cn2)CCC1` [Example 258, 6-(3-(2-(1-(4-methoxypyridin-3-yl)cyclobutoxy)acetyl)-3,8-diazabicyclo[3.2.1]octan-8-yl)nicotinonitrile]: the IC50 was less than 0.01 µM.

Consider `CCOc1cncc(C2(OCC(=O)N3CC4CCC(C3)N4c3ccc(C#N)cn3)CCC2)c1` [Example 259, 6-(3-(2-(1-(5-ethoxypyridin-3-yl)cyclobutoxy)acetyl)-3,8-diazabicyclo[3.2.1]octan-8-yl)nicotinonitrile], for which the IC50 fell in the range of 0.01 to 0.1 µM.

Consider `N#Cc1ccc(N2C3CCC2CN(C(=O)COC2(c4cncnc4)CCC2)C3)nc1` [Example 262, 6-(3-(2-(1-(pyrimidin-5-yl)cyclobutoxy)acetyl)-3,8-diazabicyclo[3.2.1]octan-8-yl)nicotinonitrile], for which the IC50 lay in the range of 0.1 to 1 µM.

With `COc1cc(C2(OCC(=O)N3CC4CCC(C3)N4c3ccc(C#N)cn3)CCC2)ncn1` [Example 263, 6-(3-(2-(1-(6-methoxypyrimidin-4-yl)cyclobutoxy)acetyl)-3,8-diazabicyclo[3.2.1]octan-8-yl)nicotinonitrile], the IC50 was 0.01 to 0.1 µM.

On to `COc1ccnc(C2(OCC(=O)N3CC4CCC(C3)N4c3ccc(C#N)cn3)CCC2)n1` [Example 264, 6-(3-(2-(1-(4-methoxypyrimidin-2-yl)cyclobutoxy)acetyl)-3,8-diazabicyclo[3.2.1]octan-8-yl)nicotinonitrile], for which the IC50 was less than 0.01 µM.

With `Cc1noc(C)c1C1(OCC(=O)N2CC3CCC(C2)N3c2ccc(C#N)cn2)CCC1` [Example 265, 6-(3-(2-(1-(3,5-dimethylisoxazol-4-yl)cyclobutoxy)acetyl)-3,8-diazabicyclo[3.2.1]octan-8-yl)nicotinonitrile], the IC50 was less than 0.01 µM.

As for `Cc1csc(C2(OCC(=O)N3CC4CCC(C3)N4c3ccc(C#N)cn3)CCC2)n1` [Example 266, 6-(3-(2-(1-(4-methylthiazol-2-yl)cyclobutoxy)acetyl)-3,8-diazabicyclo[3.2.1]octan-8-yl)nicotinonitrile], the IC50 lay in the range of 0.1 to 1 µM.

As to `COc1cc(C2(OCC(=O)N3CC4CCC(C3)N4c3ccc(C#N)cn3)CCCC2)ccn1` [Example 267, 6-(3-(2-((1-(2-methoxypyridin-4-yl)cyclopentyl)oxy)acetyl)-3,8-diazabicyclo[3.2.1]octan-8-yl)nicotinonitrile], the IC50 was 0.01 to 0.1 µM.

For the molecule `N#Cc1ccc(N2C3CCC2CN(C(=O)COC2(c4cncc(F)c4)CCCC2)C3)nc1` [Example 268, 6-(3-(2-((1-(5-fluoropyridin-3-yl)cyclopentyl)oxy)acetyl)-3,8-diazabicyclo[3.2.1]octan-8-yl)nicotinonitrile], the IC50 fell in the range of 0.01 to 0.1 µM.

As to `N#Cc1ccc(N2C3CCC2CN(C(=O)COC2(c4c(F)cnc(Br)c4F)CCC2)C3)nc1` [Example 270, 6-(3-(2-(1-(2-bromo-3,5-difluoropyridin-4-yl)cyclobutoxy)acetyl)-3,8-diazabicyclo[3.2.1]octan-8-yl)nicotinonitrile], the IC50 is less than 0.01 µM.

On to `N#Cc1ccc(N2C3CCC2CN(C(=O)COC2(c4ncc(F)cc4F)CCC2)C3)nc1` [Example 271, 6-(3-(2-(1-(3,5-difluoropyridin-2-yl)cyclobutoxy)acetyl)-3,8-diazabicyclo[3.2.1]octan-8-yl)nicotinonitrile], for which the half-inhibitory concentration (IC50) fell in the range of 0.1 to 1 µM.

Regarding `COc1ncc(F)c(C2(OCC(=O)N3CC4CCC(C3)N4c3ccc(C#N)cn3)CCC2)c1F` [Example 272, 6-(3-(2-(1-(3,5-difluoro-2-methoxypyridin-4-yl)cyclobutoxy)acetyl)-3,8-diazabicyclo[3.2.1]octan-8-yl)nicotinonitrile], the IC50 was 0.01 to 0.1 µM.

Turning to `N#Cc1ccc(N2C3CCC2CN(C(=O)COC2(c4ncccn4)CCC2)C3)nc1` [Example 273, 6-(3-(2-(1-(pyrimidin-2-yl)cyclobutoxy)acetyl)-3,8-diazabicyclo[3.2.1]octan-8-yl)nicotinonitrile], the IC50 lay within 0.1 to 1 µM.

As to `N#Cc1ccc(N2C3CCC2CN(C(=O)COC2(c4cccnn4)CCC2)C3)nc1` [Example 274, 6-(3-(2-(1-(pyridazin-3-yl)cyclobutoxy)acetyl)-3,8-diazabicyclo[3.2.1]octan-8-yl)nicotinonitrile], the IC50 lay in the range of 0.01 to 0.1 µM.

`COc1cc(C2(OCC(=O)N3CC4CCC(C3)N4c3ccc(C#N)cn3)CCC2)cnn1` [Example 275, 6-(3-(2-(1-(6-methoxypyridazin-4-yl)cyclobutoxy)acetyl)-3,8-diazabicyclo[3.2.1]octan-8-yl)nicotinonitrile]: the IC50 was 0.01 to 0.1 µM.

For the molecule `N#Cc1ccc(N2C3CCC2CN(C(=O)COCC(F)(F)c2cccc4ncccc24)C3)nc1` [Example 276, 6-(3-(2-(2,2-difluoro-2-(quinolin-5-yl)ethoxy)acetyl)-3,8-diazabicyclo[3.2.1]octan-8-yl)nicotinonitrile], the IC50 was less than 0.01 µM.

Take `COc1cc(C(F)(F)COCC(=O)N2CC3CCC(C2)N3c2ccc(C#N)cn2)ccn1` [Example 277, 6-(3-(2-(2,2-difluoro-2-(2-methoxypyridin-4-yl)ethoxy)acetyl)-3,8-diazabicyclo[3.2.1]octan-8-yl)nicotinonitrile]: the IC50 lay in the range of 0.1 to 1 µM.

In the case of `N#Cc1ccc(N2C3CCC2CN(C(=O)COCC(F)(F)c2cccn4ncnc24)C3)nc1` [Example 278, 6-(3-(2-(2-([1,2,4]triazolo[1,5-a]pyridin-8-yl)-2,2-difluoroethoxy)acetyl)-3,8-diazabicyclo[3.2.1]octan-8-yl)nicotinonitrile], the IC50 is less than 0.01 µM.

As to `N#Cc1ccc(N2C3COCC2CN(C(=O)COC2(c4ccc(F)c(F)c4)CC2)C3)nc1` [Example 279, 6-(7-(2-(1-(3,4-difluorophenyl)cyclopropoxy)acetyl)-3-oxa-7,9-diazabicyclo[3.3.1]nonan-9-yl)nicotinonitrile], the IC50 fell in the range of 1 to 10 µM.

For the molecule `N#Cc1ccc(N2C3CCC2CN(C(=O)COC2(c4ccc(F)c(F)c4)CC2)C3)nn1` [Example 280, 6-(3-(2-(1-(3,4-difluorophenyl)cyclopropoxy)acetyl)-3,8-diazabicyclo[3.2.1]octan-8-yl)pyridazine-3-carbonitrile], the IC50 fell in the range of 0.1 to 1 µM.

Take `COc1cncc(C2(OCC(=O)N3CC4CCC(C3)N4c3ccnc(C#N)c3)CCC2)c1` [Example 281, 4-(3-(2-(1-(5-methoxypyridin-3-yl)cyclobutoxy)acetyl)-3,8-diazabicyclo[3.2.1]octan-8-yl)picolinonitrile]: the IC50 was less than 0.01 µM.

As to `N#Cc1cc(N2C3CCC2CN(C(=O)COC2(c4ccncc4F)CCC2)C3)ccn1` [Example 282, 4-(3-(2-(1-(3-fluoropyridin-4-yl)cyclobutoxy)acetyl)-3,8-diazabicyclo[3.2.1]octan-8-yl)picolinonitrile], the IC50 lay within 0.01 to 0.1 µM.

`N#Cc1ccc(N2C[C@@H]3CC[C@H]2CN3C(=O)COC2(c3ccc(F)c(F)c3)CC2)nc1` [Example 283, 6-((1S,4S)-5-(2-(1-(3,4-difluorophenyl)cyclopropoxy)acetyl)-2,5-diazabicyclo[2.2.2]octan-2-yl)nicotinonitrile]: the IC50 lay in the range of 0.1 to 1 µM.

Regarding `N#Cc1ccc(N2[C@@H]3C[C@H]2CN(C(=O)COC2(c4ccc(F)c(F)c4)CC2)C3)nc1` [Example 284, 6-(3-(2-(1-(3,4-difluorophenyl)cyclopropoxy)acetyl)-3,6-diazabicyclo[3.1.1]heptan-6-yl)nicotinonitrile], the IC50 lay in the range of 1 to 10 µM.
